{"source": "patent US20050289665A1", "about": "“Method for disinfecting seed” (priority 2004, published 2005)", "key": {"[1]": {"tested_on": "microbial contaminants on the seeds", "assay": "Contamination of dissected embryos after disinfection of loblolly pine seed (Example 5)", "assay_type": "cell-based", "details": "treatment 1: 30% hydrogen peroxide 15 min, vacuum, day 24 after dissection", "procedure": "(§1) Methods: The first treatment was identical to the first treatment (hydrogen peroxide) described in EXAMPLE 4, and the second treatment was identical to the fifth treatment ([…]) described in EXAMPLE 4. Seed coats were cracked and removed, and the de-coated seeds were placed in sterile glass Petri plates (one plate/treatment) containing wet filter paper until dissection. Dissection was performed in quadrant Petri plates. A maximum of four seed were dissected per quadrant. […] Organ lengths and normalcy were assessed after 24 days on the medium."}, "loblolly pine seed": {"tested_on": "loblolly pine seed", "assay": "Germination of dissected embryos on medium 185 (normalcy, organ lengths, epicotyl presence) after disinfection of loblolly pine seed (Example 5)", "details": "treatment 1: 30% hydrogen peroxide 15 min, vacuum, day 24 after dissection", "procedure": "as §1"}, "[2]": {"tested_on": "microbial contaminants on the seeds", "details": "loblolly pine, 30% H2O2 15 minutes; for contamination of whole seed: TSYG broth at 30° C.", "procedure": "Methods: The following disinfection treatment was used for loblolly pine seed: • (1) Seed was placed in a tea strainer (about 100 seed/strainer) and soaked in deionized water for one hour with agitation; • (2) The seed in the tea strainer was soaked in a 10% solution of Liquinox (VWR Scientific) for one hour with agitation; • (3) The seed in the tea strainer was soaked in 30% H2O2 on a rotary shaker in a fume hood for 15 minutes; • (4) The seed in the tea strainer was rinsed 8 times for 10 minutes each in sterile water in a laminar flow hood; • (5) The seed in the tea strainer was hydrated in sterile water for 24 hours in a laminar flow hood; and • (6) The seed in the tea strainer was rinsed three times with sterile water for 10 minutes each.\nAfter disinfection and hydration, seed were removed from the tea strainers and placed on a sterile Petri plate. Seed were individually removed with surface-sterilized latex gloves, cracked using autoclaved Vice-Grips, and placed in sterile quadrant Petri plates (2 seeds/quadrant) containing a drop of sterile water to avoid dehydration before dissection. After dissection, 50 whole seed and 50 dissected embryos were incubated in TSYG broth (Trypticase Soy Broth 30 g/l, Yeast Extract 5 g/l, Glucose 10 g/l, and—for a solid Petri plate or agar slant—Agar 15 g/l) and examined on a daily basis for signs of contamination during an eight week incubation period at 30° C."}}, "note": "Where two headings read alike, the source gives them in different places.", "data": [{"compound": "OO", "note": "[hydrogen peroxide]", "values": [{"measurement": "Contamination (%)", "setting": "[1]", "value": 0, "unit": "%"}, {"measurement": "Cotyledon Length (cm)", "setting": "loblolly pine seed", "value": 0.7, "unit": "cm"}, {"measurement": "Epicotyl Presence (%)", "setting": "loblolly pine seed", "value": 65.7, "unit": "%"}, {"measurement": "Hypocotyl Length (cm)", "setting": "loblolly pine seed", "value": 1.2, "unit": "cm"}, {"measurement": "Normalcy (%)", "setting": "loblolly pine seed", "value": 85.7, "unit": "%"}, {"measurement": "Radicle Length (cm)", "setting": "loblolly pine seed", "value": 3.4, "unit": "cm"}, {"measurement": "contamination of whole seed", "setting": "[2]; after eight weeks of incubation", "value": 68, "unit": "%"}, {"measurement": "contamination of whole seed", "setting": "[2]; by the third day of incubation, 4 out of 50 whole seed", "value": 8, "unit": "%"}, {"measurement": "contamination of dissected embryos", "setting": "[2]; TSYG broth, eight week incubation at 30° C.", "value": "no contamination"}]}]}
